Laboratory results as given in patent US10299475B2, “Pesticide” (ISHIHARA SANGYO KAISHA, LTD., priority 2013, dated 2019).

tested on: Haemaphysalis longicornis (larvae); assay: Test for examining effect on Haemaphysalis longicornis (larvae), coated vial contact test; format: in vivo; conditions: 100 ppm solution coated on plastic vial, 20 larvae, 24 hours after contact, 25° C., constant dark, relative humidity 80-100%
Source text: Test for Examining Effect on Haemaphysalis longicornis (larvae)

| Compound | mortality at 100 ppm |
| --- | --- |
| CC(C)CNC(=O)c1ccc(CCOc2ccc(Cl)c(I)c2)cc1 [1-326, N-isobutyl-4-(2-(4-chloro-3-iodophenoxy)ethyl)benzamide] | ≥ 90% |
| CC(C)CNC(=O)c1ccc(CCOc2cccc(OC(F)(F)F)c2)cc1 [1-24, N-isobutyl-4-(2-(3-(trifluoromethoxy)phenoxy)ethyl)benzamide] | ≥ 90% |
| CC(C)CNC(=O)c1ccc(CCOc2cccc(-c3ccc(Cl)cc3Cl)c2)cc1 [4-187, N-isobutyl-4-(2-(3-(2,4-dichlorophenyl)phenoxy)ethyl)benzamide] | ≥ 90% |
| CC(C)CNC(=O)c1ccc(CCOc2cccc(Br)c2)cc1 [1-9, N-isobutyl-4-(2-(3-bromophenoxy)ethyl)benzamide] | ≥ 90% |
| CC(C)CNC(=O)c1ccc(CCOc2ccc(F)c(-c3ccccc3)c2)cc1 [4-6, N-isobutyl-4-(2-(4-fluoro-3-phenylphenoxy)ethyl)benzamide] | ≥ 90% |
| CC(C)CNC(=O)c1ccc(CCOc2ccc(Cl)c(-c3ccc(Cl)cc3)c2)cc1 [4-115, N-isobutyl-4-(2-(4-chloro-3-(4-chlorophenyl)phenoxy)ethyl)benzamide] | ≥ 90% |
| CC(C)CNC(=O)c1ccc(CCOc2ccc(OC(F)(F)F)cc2)cc1 [1-25, N-isobutyl-4-(2-(4-(trifluoromethoxy)phenoxy)ethyl)benzamide] | ≥ 90% |
